Laboratory results from PubChem BioAssay AID248 (DTP/NCI, 2004).
Inconclusive results and toxic doses are left out. Cut-off read from the data, not from the text of the source: active = T/C of 150% or more; inactive = T/C below 125%.

Tested on: L1210 leukemia ip in BDF1 mice, survival T/C
Experiment: NCI In Vivo Anticancer Drug Screen. Data for tumor model L1210 Leukemia (intraperitoneal) in B6D2F1 (BDF1) mice
Conditions: endpoint: mean survival time, higher = longer survival
In short: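 Antitumor effect is assessed in tumor-bearing animals. Survival in the compound arm is compared with a vehicle-dosed control arm and expressed as their quotient.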

[1] = dose: 100.0 mg/kg/injection, schedule: Q01DX009 (ip), vehicle: saline
[2] = dose: 100.0 mg/kg/injection, schedule: Q01DX009 (ip), vehicle: Klucel (hydroxypropylcellulose) (HPC)
[3] = dose: 200.0 mg/kg/injection, schedule: Q01DX009 (ip), vehicle: Klucel (hydroxypropylcellulose) (HPC)
[4] = dose: 400.0 mg/kg/injection, schedule: Q01DX009 (ip), vehicle: Klucel (hydroxypropylcellulose) (HPC)
[5] = dose: 100.0 mg/kg/injection, schedule: Q01DX001 (ip), vehicle: saline
[6] = dose: 100.0 mg/kg/injection, schedule: Q04DX002 (ip), vehicle: Klucel (hydroxypropylcellulose) (HPC)
[7] = dose: 200.0 mg/kg/injection, schedule: Q04DX002 (ip), vehicle: Klucel (hydroxypropylcellulose) (HPC)
[8] = dose: 25.0 mg/kg/injection, schedule: Q01DX009 (ip), vehicle: saline
[9] = dose: 50.0 mg/kg/injection, schedule: Q01DX009 (ip), vehicle: saline
[10] = dose: 100.0 mg/kg/injection, schedule: Q04DX003 (ip), vehicle: saline

Measured: T/C

O=[N+]([O-])c1cc(S(=O)(=O)O)cc([N+](=O)[O-])c1NN(c1ccccc1)c1ccccc1
inactive: dose: 44.0 mg/kg/injection, schedule: Q04DX003 (ip), vehicle: other 100 % of control | dose: 87.0 mg/kg/injection, schedule: Q04DX003 (ip), vehicle: other 92 % of control | dose: 175.0 mg/kg/injection, schedule: Q04DX003 (ip), vehicle: other 103 % of control

COC(=O)C1CC2C(Cl)=C(Cl)C1(Cl)C2(Cl)Cl (stereo not drawn)
inactive: [1] 107 % of control | dose: 200.0 mg/kg/injection, schedule: Q01DX009 (ip), vehicle: saline 123 % of control | dose: 400.0 mg/kg/injection, schedule: Q01DX009 (ip), vehicle: saline 102 % of control

O=C(Nc1cc(C(F)(F)F)cc(C(F)(F)F)c1)Nc1ccccc1C(F)(F)F
inactive: [2] 98 % of control | [3] 102 % of control | [4] 90 % of control

O=[N+]([O-])c1ccc(F)c(CNc2ncnc3c2ncn3C2CCCCO2)c1 (stereo not drawn)
inactive: [2] 100 % of control | [3] 106 % of control | [4] 100 % of control

N=C(N)CSSCC(=N)N
inactive: dose: 12.5 mg/kg/injection, schedule: Q04DX003 (ip), vehicle: carboxymethylcellulose (CMC) 92 % of control | dose: 25.0 mg/kg/injection, schedule: Q04DX003 (ip), vehicle: carboxymethylcellulose (CMC) 98 % of control | dose: 50.0 mg/kg/injection, schedule: Q04DX003 (ip), vehicle: carboxymethylcellulose (CMC) 98 % of control

C/C=C1/CN(C)C2Cc3c([nH]c4ccccc34)C(c3cc4[nH]c5c(c4cc3OC)CCN3CC4CC(C(C)O)C3C5(C(=O)OC)C4)CC1C2C(=O)OC (stereo not drawn)
inactive: dose: 10.0 mg/kg/injection, schedule: Q01DX Z (ip), vehicle: other 97 % of control | dose: 20.0 mg/kg/injection, schedule: Q01DX Z (ip), vehicle: other 93 % of control | dose: 30.0 mg/kg/injection, schedule: Q01DX Z (ip), vehicle: other 90 % of control | dose: 30.0 mg/kg/injection, schedule: Q02DX Z (ip), vehicle: other 104 % of control | dose: 40.0 mg/kg/injection, schedule: Q01DX Z (ip), vehicle: other 95 % of control | dose: 40.0 mg/kg/injection, schedule: Q01DX Z (ip), vehicle: water 90 % of control | dose: 40.0 mg/kg/injection, schedule: Q02DX Z (ip), vehicle: other 103 % of control | dose: 60.0 mg/kg/injection, schedule: Q02DX Z (ip), vehicle: other 102 % of control | dose: 80.0 mg/kg/injection, schedule: Q01DX Z (ip), vehicle: water 94 % of control | dose: 80.0 mg/kg/injection, schedule: Q02DX Z (ip), vehicle: other 95 % of control

c1ccc(-c2oc3ccc4ccccc4c3c2-c2ccc(OCCN3CCCC3)cc2)cc1
inactive: dose: 10.0 mg/kg/injection, schedule: Q01DX009 (ip), vehicle: Klucel (hydroxypropylcellulose) (HPC) 102 % of control | dose: 20.0 mg/kg/injection, schedule: Q01DX009 (ip), vehicle: Klucel (hydroxypropylcellulose) (HPC) 101 % of control | dose: 40.0 mg/kg/injection, schedule: Q01DX009 (ip), vehicle: Klucel (hydroxypropylcellulose) (HPC) 101 % of control | dose: 80.0 mg/kg/injection, schedule: Q01DX009 (ip), vehicle: Klucel (hydroxypropylcellulose) (HPC) 101 % of control

Cc1cc(Cl)nc2ccc(Cc3ccccc3)cc12
inactive: [5] 102 % of control | dose: 200.0 mg/kg/injection, schedule: Q01DX001 (ip), vehicle: saline 96 % of control | dose: 400.0 mg/kg/injection, schedule: Q01DX001 (ip), vehicle: saline 103 % of control

COB(C1CCCCC1)C1CCCCC1
inactive: dose: 100.0 mg/kg/injection, schedule: Q04DX003 (ip), vehicle: Klucel (hydroxypropylcellulose) (HPC) 91 % of control | dose: 200.0 mg/kg/injection, schedule: Q04DX003 (ip), vehicle: Klucel (hydroxypropylcellulose) (HPC) 98 % of control | dose: 400.0 mg/kg/injection, schedule: Q04DX003 (ip), vehicle: Klucel (hydroxypropylcellulose) (HPC) 100 % of control

CCOP(=O)(OCC)OCc1ccccc1
inactive: dose: 12.5 mg/kg/injection, schedule: Q04DX003 (ip), vehicle: saline with Tween-80 98 % of control

CCCNC(=O)Oc1ccc(Nc2ccccc2)cc1
inactive: [6] 118 % of control | [7] 103 % of control | dose: 400.0 mg/kg/injection, schedule: Q04DX002 (ip), vehicle: Klucel (hydroxypropylcellulose) (HPC) 107 % of control

O=[N+]([O-])C1CCCCC1O (stereo not drawn)
inactive: dose: 10.0 mg/kg/injection, schedule: Q01DX001 (ip), vehicle: saline 103 % of control | dose: 20.0 mg/kg/injection, schedule: Q01DX001 (ip), vehicle: saline 105 % of control | dose: 40.0 mg/kg/injection, schedule: Q01DX001 (ip), vehicle: saline 100 % of control

O=C(CCl)C1C(O)=[N+](c2ccccc2)C2C=CC=CN12 (stereo not drawn)
inactive: [8] 92 % of control | dose: 25.0 mg/kg/injection, schedule: Q04DX003 (ip), vehicle: saline 92 % of control | [9] 89 % of control | dose: 50.0 mg/kg/injection, schedule: Q04DX003 (ip), vehicle: saline 102 % of control | [5] 105 % of control | [1] 87 % of control | [10] 95 % of control | dose: 150.0 mg/kg/injection, schedule: Q01DX009 (ip), vehicle: saline 95 % of control | dose: 225.0 mg/kg/injection, schedule: Q01DX009 (ip), vehicle: saline 95 % of control | dose: 335.0 mg/kg/injection, schedule: Q01DX009 (ip), vehicle: saline 95 % of control

NC(=O)C(Cl)CCl (stereo not drawn)
inactive: dose: 50.0 mg/kg/injection, schedule: Q04DX002 (ip), vehicle: Klucel (hydroxypropylcellulose) (HPC) 104 % of control | [6] 101 % of control | [7] 104 % of control

Cc1cccc(Nc2c(N)nc(N)nc2N)c1
inactive: [8] 105 % of control | [9] 120 % of control | [10] 104 % of control
